The values that follow come from PMC7496730, “Peptide-PAINT Super-Resolution Imaging Using Transient Coiled Coil Interactions” (Nano Letters, 2020).

Residues, ends and D or L forms follow the SMILES beside them.

This experiment deals with E3 peptide (21 amino acid). Put plainly: E/K coiled coil stability (length dependence, Figure S1), E3/K3 complex. The conditions noted are these: 21 aa long E3 and K3 peptides. It counts as binding. As to the method: The PAINT process requires a dynamic equilibrium between bound and unbound states of the fluorescently labeled imager probe. In DNA-PAINT, this is achieved when the transiently formed duplexes have stabilities in the micromolar range (KD ≈ 1 μM). The interaction between the 21 amino acid (aa) long E3 and K3 peptides previously used for protein imaging[20]−[23] leads to a coiled coil complex with nanomolar stability (KD ≈ 20 nM, Figure S1). Aiming for the identification of a suitable weaker affinity, we investigated the length dependence of coiled coil stability (Figure S1).

For `CC[C@H](C)[C@H](NC(=O)[C@H](CCCCN)NC(C)=O)C(=O)N[C@@H](C)C(=O)N[C@@H](C)C(=O)N[C@@H](CC(C)C)C(=O)N[C@@H](CCCCN)C(=O)N[C@@H](CCC(=O)O)C(=O)N[C@@H](CCCCN)C(=O)N[C@H](C(=O)N[C@@H](C)C(=O)N[C@@H](C)C(=O)N[C@@H](CC(C)C)C(=O)N[C@@H](CCCCN)C(=O)N[C@@H](CCC(=O)O)C(=O)N[C@@H](CCCCN)C(=O)N[C@H](C(=O)N[C@@H](C)C(=O)N[C@@H](C)C(=O)N[C@@H](CC(C)C)C(=O)N[C@@H](CCCCN)C(=O)N[C@@H](CCC(=O)O)C(N)=O)[C@@H](C)CC)[C@@H](C)CC` [K3] (Ac-KIAALKEKIAALKEKIAALKE-NH2), the dissociation constant Kd (usually the free concentration of one partner at which half of the binding sites on the other are occupied at equilibrium, for simple one-to-one binding) was approximately 0.02 µM.
